Residues, ends and D or L forms follow the SMILES beside them. *: point of attachment. 5FAM = O=C1OC2(c3ccc(O)cc3Oc3cc(O)ccc32)c2ccc(C(=O)*)cc21; X1 = O=C(O)C(C(=O)O)*
What was measured:
SHP2 C‐SH2 domain = biological target: T1, SHP2 C‐SH2 domain (Homo sapiens, UniProt Q06124); test: Fluorescence polarization (FP) binding assay, SHP2 C-SH2 domain; details: 100 nM FAM-labelled peptide, increasing C-SH2 protein, 50 mM HEPES pH 7.5, 150 mM NaCl, 1 mM EDTA, 0.05% Tween 20, FP at 10 min, three independent experiments in technical triplicates, read-out: K D ± SEM, C‐SH2 (FP)
T1 construct: SHP2 N-SH2 domain (1–105), C-SH2 domain (106–220), PTP domain (224–541) and; His6 (pETM22 vector) (N, cleaved yes); made in house; host or cells: E. coli BL21(DE3)
T1 sequence (Q06124 106-220): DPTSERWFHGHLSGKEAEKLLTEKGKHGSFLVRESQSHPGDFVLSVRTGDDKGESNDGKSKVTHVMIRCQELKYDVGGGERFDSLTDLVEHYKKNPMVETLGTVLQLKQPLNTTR
Protocol: (§1) buffer and stored in 5 mL binding buffer at 4°C. His-tagged 3C protease (0.5 mg; EMBL) was added to the pooled eluted fractions and dialysed using Spectra Por Dialysis Tubing (MWCO 6-8 kDa, 23 mm; Spectrum Labs) in 1 L of binding buffer at 4°C for 3 hours, then overnight in fresh buffer. A new column was prepared by loading 2 mL Ni-NTA Agarose (Invitrogen) as a 50% slurry in EtOH. The column was washed with 10 mL H2O to remove the EtOH and equilibrated with 10 mL binding buffer. The protein/3C protease mixture was loaded onto the column and incubated for 1 hour at 4°C on a rocker. The flow through containing the protein was collected, the column was washed with 100 mL binding buffer and the 3C protease was eluted with 5 mL elution buffer. Protein purification was monitored by SDS-PAGE using NuPAGE 4-12% Bis-Tris Protein Gels (Invitrogen) run in MOPS buffer (50 mM MOPS, 50 mM Tris-HCl pH 7.7, 1 mM EDTA, 0.1% SDS) followed by Coomassie staining using Coomassie Brilliant Blue (Roth). The purified protein was dialysed into the final storage buffer (50 mM HEPES pH 7.5, 150 mM NaCl, 2 mM DTT, 20% glycerol). Aliquots were prepared and stored at -80°C until required. […]
(§2) 4. Fluorescence polarization
Fluorescence polarization (FP) was used to measure the binding of FAM-labelled peptides to the SHP2 C-SH2, SHP2 N-SH2, SHP2 PTP, CSK SH2 or Src SH2 domains. Each peptide was added to increasing concentrations of SHP2 C-SH2, SHP2 N-SH2, SHP2 PTP, CSK SH2 or Src SH2 protein in FP buffer (50 mM HEPES pH 7.5, 150 mM NaCl, 1 mM EDTA, 0.05% Tween 20) to give a final peptide […]
concentration of 100 nM in a final volume of 200 µL. For baseline subtraction, each peptide was added to FP buffer, instead of protein, with a final peptide concentration of 100 nM in a final volume of 200 µL. Samples were mixed gently then 3 x 60 µL of each sample was transferred into triplicate wells in a 96-well plate (OptiPlate-96 F Black; PerkinElmer). The FP was immediately measured on a Synergy H1 Microplate Reader (BioTek) with the excitation and emission monitored at 485 nm and 528 nm, respectively, over 30 minutes. FP values were automatically calculated by the Gen5 3.03 (BioTek) software associated with the microplate reader. Data were analysed in Excel 2016 by subtracting baseline values from FP values at 10 minutes. Data were then further analysed in GraphPad Prism 6 by plotting the baseline subtracted FP values against the protein concentration and fitting the data to a variable slope model of non-linear regression to obtain the KD values. Data are from three independent experiments, each performed in technical triplicates.
5. Isothermal titration calorimetry […]
Analysis Software (Malvern Panalytical). For the data analysis, a 1:1 binding stoichiometry between the Ac-ITSM(pTyr) and SH2 domain was assumed. ITC measurements were performed once.

CSK SH2 domain = test: FP binding assay, CSK SH2 domain; details: 100 nM peptide, three independent experiments
Protocol: as §1, with “The flow through containing the protein was collected, the column was washed with 100 mL binding buffer and the 3C protease was eluted with 5 mL elution buffer.” left out, “(Roth).” for “(Roth). The purified protein was dialysed into the final storage buffer (50 mM HEPES pH 7.5, 150 mM NaCl, 2 mM DTT, 20% glycerol). Aliquots were prepared and stored at -80°C until required.”
as §2
Fluorescence polarization (FP) was used to measure the binding of FAM-labelled peptides to the SHP2 C-SH2, SHP2 N-SH2, SHP2 PTP, CSK SH2 or Src SH2 domains. […]
concentration of 100 nM in a final volume of 200 µL. […] The FP was immediately measured on a Synergy H1 Microplate Reader (BioTek) with the excitation and emission monitored at 485 nm and 528 nm, respectively, over 30 minutes. FP values were automatically calculated by the Gen5 3.03 (BioTek) software associated with the microplate reader. […]

With CC[C@H](C)[C@H](NC(=O)[C@@H](NC(=O)[C@H](C)NC(=O)[C@H](Cc1ccc(OC(C(=O)O)C(=O)O)cc1)NC(=O)[C@H](CCC(=O)O)NC(=O)[C@@H](NC(=O)[C@H](CCC(N)=O)NC(=O)c1ccc2c(c1)C(=O)OC21c2ccc(O)cc2Oc2cc(O)ccc21)[C@@H](C)O)[C@@H](C)O)C(=O)N[C@@H](CCCCN)C(=O)N[C@@H](Cc1c[nH]cn1)C(=O)N1CCC[C@H]1C(N)=O [peptide 26] (5FAM-QTEY(X1)ATIKHP-NH2) the Kd (SHP2 C‐SH2 domain) was 1600 ± 388 nM and the “binding to CSK SH2 domain compared to SHP2 C‐SH2 domain” value (CSK SH2 domain) was “at least two orders of magnitude weaker”.

From publication PMC12118337, “Development of a Peptide Inhibitor Targeting the C‐SH2 Domain of the SHP2 Phosphatase” (Chembiochem, 2025)
